Holding throughout (type): in vivo, human
In data set [1] the test system is patients suffering from ADHD. Nature of the data set: Clinical Global Impression-Severity scale (CGI-S), Patients A-H. The procedure:
In an embodiment, attentiveness is measured using the Clinical Global Impression rating scales to measure symptom severity, treatment response and the efficacy of treatments in treatment studies of patients with mental disorders (Guy, W., 1976). In an embodiment, attentiveness is measure using the Clinical Global Impression-Severity scale (“CGI-S”). In an embodiment, CGI-S is a 7-point scale that requires the clinician to rate the severity of the patient's illness at the time of assessment, relative to the clinician's past experience with patients who have the same diagnosis. Considering total clinical experience, a patient is assessed on severity of mental illness at the time of rating 1, normal, not at all ill; 2, borderline mentally ill; 3, mildly ill; 4, moderately ill; 5, markedly ill; 6, severely ill; or 7, extremely ill. In an embodiment, attentiveness is measured using the Clinical Global Impression-Improvement scale (“CGI-I”). […] In an embodiment, attentiveness is measured using the Clinical Global Impression-Efficacy Index (“CGI-E”).
(§1) The age range of the patients was from 6-15 years of age, with a mean age at the start of treatment for ADHD of 8.4 years of age. The mean age at the start of the combination treatment wherein the patient was administered an amphetamine or methylphenidate and an appetite stimulant was 10.3 years of age. The mean treatment period for the eight patients was 1,108 days with a mean of 2.55 ADHD medication changes during the treatment period. Attentiveness in the eight patients was measured using CGI-S and CGI-I. Patients weight and height velocity were measured to identify a difference in weight and height gain prior to and after addition of an appetite stimulant to the treatment for ADHD. Weight velocity was calculated by taking three time points, time 0 upon initiation of medication to treat ADHD, time 1 addition of an appetite stimulant, time 2 the last data point after initiation of combination treatment. The formula to calculate weight velocity for stimulant alone is (weightT1−weight T0)/days from Time 0 to time 1. The formula to calculate weight velocity for combination treatment is (weightT2−weight T1)/days from time 1 to time 2.

Data set [2] is described as follows: Examples 3-11: weight and height (velocity, percentile curve, course) of ADHD Patients A-H. Here is the method: In an embodiment, a therapeutically effective amount of a therapeutic compound disclosed herein increases the weight or height of an individual is determined by an increase in the individual's weight or height velocity as compared to an individual nor receiving a therapeutic compound for appetite reduction. In an embodiment, weight and/or height velocity can be calculated by taking measurements of height and/or weight of an individual over a period of time and measuring an increase or decrease in an individual's height and/or weight over the period of time. In an embodiment, weight velocity is calculated by taking three time points, time 0 upon initiation of medication to treat ADHD, time 1 addition of an appetite stimulant, time 2 the last data point after initiation of combination treatment. In an embodiment, a formula to calculate weight and height velocity for stimulant alone is (weightT1−weight T0)/days from Time 0 to time 1. In an embodiment, a formula to calculate weight velocity for combination treatment is (weightT2−weight T1)/days from time 1 to time 2. In an embodiment, to evaluate whether weight velocity increased after addition of an appetite stimulant, the weight velocity of time 0 to time 1 is compared to the weight velocity from time 1 to time 2. In an embodiment, height velocity is calculated by taking three time points, time 0 upon initiation of medication to treat ADHD, time 1 addition of an appetite stimulant, time 2 the last data point after initiation of combination treatment. The formula to calculate height velocity for stimulant alone is (weightT1−weight T0)/days from Time 0 to time 1. The formula to calculate height velocity for combination treatment is (weightT2−weight T1)/days from time 1 to time 2. In an embodiment, to evaluate whether height velocity increased after addition of an appetite stimulant, the height velocity of time 0 to time 1 is compared to the height velocity from time 1 to time 2.
Eight patients, identified as patients A-H, that came in suffering from ADHD were treated for ADHD. […] Each patient was then prescribed an appetite simulant to be taken along with the amphetamine or methylphenidate. The patients' weight, height and attentiveness were then followed during the course of treatment.
as §1

A short description of data set [3]: Example 2 case study: child with ADHD on methylphenidate, then Periactin (height, weight, percentiles, attentiveness). The conditions noted are these: for height percentile compared to girls their age / weight percentile compared to girls their age / weight: methylphenidate. The text has this:
Case study: A child was presented by their parents for symptoms of attention deficit hyperactivity disorder. Their size at evaluation was 4′1¾″ and 50 lbs, corresponding to the 81st and 50th percentiles when compared to girls their age. […] At three months following the initiation of treatment for ADHD, the child was 4′2⅞″ and 50½ lbs, corresponding to the 85th and 34rd percentiles when compared to girls their age. At one year, they were 4′4⅜″ and 53 lbs, corresponding to the 84th and 36th percentiles when compared to girls their age. At two years they were 4′5¾″ and 54 lbs, corresponding to the 72nd and 17th percentiles when compared to girls their age. At four years of treatment they were 4′7⅜″ and 59 lbs, corresponding to 70th and 14th percentiles when compared to girls their age. At five years of treatment they were 4′9⅞″ and 64½ lbs, corresponding to 59th and 7th percentiles when compared to girls their age.
The child was then prescribed Periactin at a dosage of 2 mg b.i.d. to attempt to stimulate appetite. The dose was taken in the morning and then in the afternoon. After one year they were 4′11½″ and 72½ lbs, corresponding to 33rd and 5th percentiles when compared to girls their age. The child was then prescribed Periactin at a dose of 4 mg b.i.d. After two months on this dose, they were 5′¼″ and 76 lbs, corresponding to 37th and 8th percentiles when compared to girls their age. At 8 months on this dose, they were 5′½″ and 80 lbs, corresponding to 41st and 8th percentiles when compared to girls their age. At one year on this dose, they were 5′2¾″ and 89½ lbs, corresponding to 51st and 17th percentiles when compared to girls their age. At 18 months on this dose, they were 5′3⅝″ and 99½ lbs, corresponding to 56th and 30th percentiles when compared to girls their age. Additionally, the attentiveness of the child increase following the prescription of Periactin as they increased their food intake during the day.

In data set [4] the test system is patient suffering from ADHD. Nature of the data set: Example 1: patient suffering from ADHD treated with and without an appetite stimulant (appetite, blood glucose, attentiveness by CGI-S and CGI-I). An excerpt:
A patient suffering from ADHD is prescribed and administered an amphetamine to treat ADHD. The patient takes the amphetamine once a day in the morning or afternoon. […] As a result, the glucose level measured in the blood increases as shown in FIG. 1 and the patient's attentiveness recovers as measured by CGI-S and CGI-I. By taking the appetite stimulant during the time when the patient was awake, the patient increased their caloric intake during times when the patient needed to maintain their attentiveness in order to have reasonable cognition and/or social behaviour.

The mark [5] stands for this setting: Patient E, Concerta 27 mg then Focalin XR 10-15 mg alone, FIG. 12.
[6] abbreviates: various forms of methylphenidate.

In the case of `COC(=O)C(c1ccccc1)C1CCCCN1` (centres unmarked) [Daytrana patch, methylphenidate], the CGI-S score in data set [1] (Patient F, Daytrana patch 15 mg (day 469), 20 mg (day 606), FIG. 15) was 5.
Regarding `COC(=O)C(c1ccccc1)C1CCCCN1` (centres unmarked) [Concerta, methylphenidate], the weight course result in data set [2] (Patient A, Concerta 18 mg alone, from about day 371, FIG. 4) is “began to lose weight again”; in data set [2] (Patient C, Concerta 36 mg alone, FIG. 8), “little weight gain followed by weight loss”; in data set [2] (setting [5]), “did not increase substantively”. Moreover, the CGI-S score amounted to 4 in data set [1] (Patient A, Concerta 18 mg alone, constant for almost 400 days, FIG. 5); 5 in data set [1] (Patient C, Concerta 36 mg alone, FIG. 9); 6 in data set [1] (Patient D, Concerta 18 mg before combination, FIG. 11).
Turning to `COC(=O)C(c1ccccc1)C1CCCCN1` (centres unmarked) [Ritalin LA, methylphenidate], the weight course result in data set [2] (Patient F, Ritalin LA with Focalin, then Daytrana patch, without Periactin, FIG. 14) was “did not increase substantively”. In addition, the CGI-S score in data set [1] (Patient F, Ritalin LA 20 mg and Focalin 5 mg, FIG. 15) stood at 7; in data set [1] (Patient F, Ritalin LA 30 mg and Focalin 5 mg from day 46, FIG. 15), 6.
Consider `C[C@@H](Cc1ccccc1)NC(=O)[C@@H](N)CCCCN` [Vvyanase, lisdexamfetamine], for which the weight course entry in data set [2] (Patient H, Vvyanase 40 mg alone, FIG. 18) is reported as “little weight gain”. Besides, the CGI-S score in data set [1] (Patient H, Vvyanase 40 mg alone (dropped from 6), FIG. 19) came out at 5.
As to `COC(=O)C(c1ccccc1)C1CCCCN1` (centres unmarked) [methylphenidate], the “height percentile compared to girls their age” value is listed as 59 percentile in data set [3] (five years); 70 percentile in data set [3] (four years); 84 percentile in data set [3] (one year); 85 percentile in data set [3] (three months); 72 percentile in data set [3] (two years). Further, the “weight percentile compared to girls their age” value in data set [3] (five years) was found to be 7 percentile; in data set [3] (four years), 14 percentile; in data set [3] (one year), 36 percentile; in data set [3] (three months) it was 34 percentile; in data set [3] (two years), 17 percentile. In addition, the weight is 59 lbs in data set [3] (four years of treatment), 53 lbs in data set [3] (one year) and 54 lbs in data set [3] (two years). For the same molecule, the “response of ADHD to treatment” value in data set [3] (setting [6]) is given as “responded well”. Moreover, the side-effect result in data set [3] (setting [6]) is “suppression of appetite and a lack of significant weight gain”.
Regarding `COC(=O)[C@H](c1ccccc1)[C@H]1CCCCN1` [Focalin XR, dexmethylphenidate], the weight course result in data set [2] (Patient B, Focalin XR 10 mg then 15 mg alone, FIG. 6) is “slow and then became slightly erratic”; in data set [2] (setting [5]), “did not increase substantively”. Further, the CGI-S score in data set [1] (Patient E, Focalin XR 10 mg (before dose increase), FIG. 13) was 6; in data set [1] (Patient E, Focalin XR 15 mg from day 162, FIG. 13) it was 5; in data set [1] (Patient G, Focalin XR 15 mg alone (dropped from 5), FIG. 17), 4.
For `CC(N)Cc1ccccc1` (centres unmarked) [amphetamine], the “attentiveness as measured by CGI-S and CGI-I” value in data set [4] (amphetamine once a day alone) is on record as “lack of attentiveness”. In addition, the “glucose level measured in the blood” value in data set [4] (amphetamine once a day alone, FIG. 1) is listed as “drops”. In addition, the appetite result in data set [4] (amphetamine once a day in the morning or afternoon, alone) is reported as “loss of appetite”.

Source of the values: patent publication US10682409B2, “Therapeutic treatment” (priority 2012, dated 2020).
